Each structure is given as a SMILES string. “Also recorded” adds a separate entry of the source.

Series [1] can be described thus: Liver microsome stability, mouse. In kind it is in vitro ADME. Particulars: liver microsomes. An excerpt:
(§1) Representative Metabolic Stability Data I; +, Extrapolated.

For series [2], the system named is TNF-α-induced SIRS in mice. Kind of series: Mouse SIRS model (TNF-α-induced mortality). In kind it is in vivo, C57BI/6J mice. To be noted: TNF-α intravenously 2 minutes after. On the procedure:
Effect on Mouse SIRS Model Sepsis preceded by systemic inflammatory response syndrome (SIRS), is a major cause of death in critically ill patients. TNF-α functions as a key mediator in SIRS pathogenesis by the induction of RIP1-RIP3 mediated necroptosis of the liver.
SIR1-365 was administrated as a single dose by oral gavage at 3 different doses: 1, 3, and 10 mg/kg to C57BI/6J mice. TNF-α was delivered intravenously 2 minutes after SIR1-365 administration. 87.5% (7 of 8) mice in the control group (given vehicle) died within 36 hours, whereas 50% (4 of 8) mice given SIR1-365 at 1 mg/kg and 25% (2 of 8) mice given SIR1-365 at 3 mg/kg died in the same period.

Series [3] is described as follows: Liver microsome stability, rat. It is filed as in vitro ADME. Particulars: liver microsomes.
Source text: as §1
(In general: Microsomes from liver hold many membrane-bound enzymes, among them those of drug oxidation.)

A short description of series [4]: Hepatocyte stability, mouse. It is filed as in vitro ADME. Particulars: mouse, hepatocytes, read-out: Mouse T1/2. An excerpt: Representative Metabolic Stability Data II, +, Extrapolated.
Another series deals with Human RIP1 kinase (Homo sapiens (Human), UniProt Q13546). Kind of series: Human RIP1 kinase assay. It is filed as biochemical. To be noted: given as bound or range. An excerpt:
Representative IC50 of hRIP1 Kinase Assay Correlated with Our IC50 of Cell Necrosis Assay: […]

Human RIP1 kinase, sequence (Q13546 whole entry): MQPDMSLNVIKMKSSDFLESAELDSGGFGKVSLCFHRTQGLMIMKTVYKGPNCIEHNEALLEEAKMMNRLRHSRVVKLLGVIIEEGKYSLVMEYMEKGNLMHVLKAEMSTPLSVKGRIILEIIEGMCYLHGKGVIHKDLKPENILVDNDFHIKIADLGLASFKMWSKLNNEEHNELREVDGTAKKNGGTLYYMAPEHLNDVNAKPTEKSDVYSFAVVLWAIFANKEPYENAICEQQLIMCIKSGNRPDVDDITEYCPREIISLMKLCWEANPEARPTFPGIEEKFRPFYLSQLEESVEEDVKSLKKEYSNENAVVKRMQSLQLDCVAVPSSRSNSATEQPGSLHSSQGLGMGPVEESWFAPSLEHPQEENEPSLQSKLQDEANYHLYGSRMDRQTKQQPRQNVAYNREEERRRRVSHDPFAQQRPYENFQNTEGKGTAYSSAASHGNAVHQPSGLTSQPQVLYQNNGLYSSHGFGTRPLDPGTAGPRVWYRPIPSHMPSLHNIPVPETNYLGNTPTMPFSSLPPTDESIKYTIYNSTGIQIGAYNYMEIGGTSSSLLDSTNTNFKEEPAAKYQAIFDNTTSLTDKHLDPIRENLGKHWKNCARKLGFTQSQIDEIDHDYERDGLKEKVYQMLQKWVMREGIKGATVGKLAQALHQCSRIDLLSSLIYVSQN

For `CCC(C)(C)C(=O)N(O)Cc1cc(F)cc(F)c1` [Compound 13, N-(3,5-difluorobenzyl)-N-hydroxy-2,2-dimethylbutanamide], the half-life in series [1] (comparison table with WO2016/101885 compounds, read-out: Mouse Liver Microsome T1/2) was 17 min; in series [1] (liver microsome stability, read-out: Mouse T1/2), 17.1 min; in series [3] (comparison table with WO2016/101885 compounds, read-out: Rat Liver Microsome T1/2), 20 min; in series [3] (liver microsome stability, read-out: Rat T1/2), 19.9 min; in series [4] (Hepatocyte Stability, comparison table), 20 min; in series [4] (Hepatocyte stability), 20.1 min. For the same molecule, the results for the “mice died within 36 hours” value in series [2] (single oral gavage dose 1 mg/kg) and in series [2] (single oral gavage dose 3 mg/kg) were 50% and 25%, respectively. Moreover, the “mortality caused by SIRS” value in series [2] (single oral gavage dose 10 mg/kg, listed as SIR1-365) is “completely prevented mortality; also recorded: complete prevention”. For the same molecule, on Human RIP1 kinase, the IC50 – broadly, the concentration at which inhibition is half-maximal – is under 0.1 µM.

Values taken from patent publication US12129221B2, “Difluoro phenyl amide RIP1 inhibitor” (SIRONAX LTD, priority 2018, dated 2024).
